Measurements published in publication PMC5241705 (ACS Infectious Diseases, 2016).
Converted amounts (≈) assume the structure as drawn. “Also recorded” adds a separate entry of the source.

How the values were obtained:
[1] = tested on: Mtb H37Rv; experiment: Time-kill kinetics; type: cell-based; conditions: Mycobacterium tuberculosis, read-out: 99% minimum bactericidal concentration (MBC99)
[2] = tested on: Mtb SRMV2.6; experiment: microbe, parasite or virus in culture; type: cell-based, Mycobacterium tuberculosis
[3] = tested on: Mtb-infected MRC-5 fibroblasts; type: cell-based, human; conditions: concentration up to 50 μM
[4] = human and rodent liver microsomes and human liver primary hepatocytes
[5] = tested on: Mtb H37Rv; experiment: Checkerboard assay, purine supplementation versus VCC234718; type: cell-based, Mycobacterium tuberculosis; conditions: for MIC90: Mycobacterium tuberculosis, H37RV
[6] = tested on: Mtb SRMV2.6 attB::guaB2; experiment: MIC by AlamarBlue assay; type: cell-based; conditions: Mycobacterium tuberculosis
[7] = tested on: Corynebacterium glutamicum; conditions: phenotypic screen; cited from earlier work
[8] = tested on: Mtb-infected activated THP-1 macrophages; type: cell-based, human
[9] = tested on: Mtb H37Rv attB::guaB2-guaB3; experiment: MIC by AlamarBlue assay; type: cell-based; conditions: Mycobacterium tuberculosis
[10] = tested on: Mtb SRMV2.6 attB::guaB2-guaB3; experiment: MIC by AlamarBlue assay; type: cell-based; conditions: Mycobacterium tuberculosis
[11] = tested on: Mtb SRMV2.3; experiment: microbe, parasite or virus in culture; type: cell-based; conditions: Mycobacterium tuberculosis
[12] = molecular target: human ERG channel (Homo sapiens, UniProt Q12809); experiment: cell-based
Chain of human ERG channel (Q12809 whole entry): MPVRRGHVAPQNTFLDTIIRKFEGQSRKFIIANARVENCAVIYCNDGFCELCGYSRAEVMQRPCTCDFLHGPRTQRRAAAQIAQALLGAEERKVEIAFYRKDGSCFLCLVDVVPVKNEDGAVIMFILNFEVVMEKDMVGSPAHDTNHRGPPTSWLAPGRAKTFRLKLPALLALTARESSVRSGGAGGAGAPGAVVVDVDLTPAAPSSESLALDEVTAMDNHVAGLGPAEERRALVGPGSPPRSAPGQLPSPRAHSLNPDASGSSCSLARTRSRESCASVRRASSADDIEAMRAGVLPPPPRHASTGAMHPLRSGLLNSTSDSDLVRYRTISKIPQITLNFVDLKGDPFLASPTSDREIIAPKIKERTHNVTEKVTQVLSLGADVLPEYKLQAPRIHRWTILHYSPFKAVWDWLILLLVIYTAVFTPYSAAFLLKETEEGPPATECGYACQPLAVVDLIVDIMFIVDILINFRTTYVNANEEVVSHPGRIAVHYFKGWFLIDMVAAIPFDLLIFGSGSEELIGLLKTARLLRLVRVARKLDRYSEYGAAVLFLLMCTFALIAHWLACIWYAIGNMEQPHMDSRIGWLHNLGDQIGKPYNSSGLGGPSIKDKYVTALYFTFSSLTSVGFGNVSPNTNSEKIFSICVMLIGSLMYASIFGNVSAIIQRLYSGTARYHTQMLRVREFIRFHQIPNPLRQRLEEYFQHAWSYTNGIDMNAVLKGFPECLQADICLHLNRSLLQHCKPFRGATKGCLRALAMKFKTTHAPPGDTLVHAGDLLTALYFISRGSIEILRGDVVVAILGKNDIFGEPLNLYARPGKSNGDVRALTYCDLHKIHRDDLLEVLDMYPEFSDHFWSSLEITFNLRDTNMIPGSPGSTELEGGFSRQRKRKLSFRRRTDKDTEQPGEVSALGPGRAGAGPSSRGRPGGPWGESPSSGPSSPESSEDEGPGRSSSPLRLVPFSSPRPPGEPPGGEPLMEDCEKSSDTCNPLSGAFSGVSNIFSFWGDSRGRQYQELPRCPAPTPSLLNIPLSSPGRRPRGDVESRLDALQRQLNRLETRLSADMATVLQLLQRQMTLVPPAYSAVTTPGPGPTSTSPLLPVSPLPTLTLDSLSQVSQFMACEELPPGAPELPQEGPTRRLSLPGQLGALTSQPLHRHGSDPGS

[13] = tested on: Mtb guaB2-guaB3 Tet-OFF attB::guaB3; experiment: microbe, parasite or virus in culture; type: cell-based, Mycobacterium tuberculosis; conditions: for effect of guaB2 silencing on susceptibility: data not shown
[14] = tested on: nonreplicating, streptomycin-starved Mtb 18b or 18b-Lux; experiment: Activity against nonreplicating bacilli; type: cell-based, Mycobacterium tuberculosis; conditions: concentrations up to 20 μM
[15] = tested on: PDIM-deficient H37Rv strain (H37RvJO); experiment: MIC by AlamarBlue assay; type: cell-based; conditions: Mycobacterium tuberculosis
[16] = tested on: Mtb H37Rv attB::guaB2; experiment: MIC by AlamarBlue assay; type: cell-based; conditions: Mycobacterium tuberculosis
[17] = tested on: Mtb H37Rv (H37RvMA); experiment: MIC by broth microdilution, AlamarBlue assay; type: cell-based; conditions: Mycobacterium tuberculosis
[18] = tested on: replicating H37Rv; experiment: microbe, parasite or virus in culture; type: cell-based, Mycobacterium tuberculosis
[19] = human primary hepatocytes
[20] = molecular target: Mtb GuaB2 (Mycobacterium tuberculosis, UniProt P9WKI7); experiment: biochemical
Chain of Mtb GuaB2 (P9WKI7 whole entry, looked up): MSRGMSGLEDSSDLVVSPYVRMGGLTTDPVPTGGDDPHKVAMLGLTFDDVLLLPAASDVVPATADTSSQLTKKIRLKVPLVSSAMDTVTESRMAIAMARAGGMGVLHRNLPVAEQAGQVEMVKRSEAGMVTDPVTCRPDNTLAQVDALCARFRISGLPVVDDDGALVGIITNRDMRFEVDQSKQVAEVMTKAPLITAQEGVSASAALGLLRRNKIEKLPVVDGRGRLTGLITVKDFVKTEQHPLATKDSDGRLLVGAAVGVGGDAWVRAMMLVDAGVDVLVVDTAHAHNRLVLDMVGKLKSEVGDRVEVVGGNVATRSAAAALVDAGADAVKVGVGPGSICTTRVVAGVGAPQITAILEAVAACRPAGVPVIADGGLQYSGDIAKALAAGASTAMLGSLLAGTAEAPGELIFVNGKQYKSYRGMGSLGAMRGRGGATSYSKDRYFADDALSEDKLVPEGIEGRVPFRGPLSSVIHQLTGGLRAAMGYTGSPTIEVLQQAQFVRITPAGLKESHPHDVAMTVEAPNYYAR

[21] = tested on: Mtb SRMV2.10; experiment: microbe, parasite or virus in culture; type: cell-based; conditions: Mycobacterium tuberculosis
[22] = tested on: Caco-2/TC-7 cell monolayers; conditions: threshold value 20 × 10^–7 cm s^–1
[23] = tested on: Mtb guaB2-guaB3 Tet-OFF attB::guaB3 and guaB2-guaB3 Tet-OFF; type: cell-based, Mycobacterium tuberculosis

SMILES: O=C(C1CCCCC1)N1CCN(S(=O)(=O)c2cccc3cnccc23)CC1 [VCC234718, N-(5-Isoquinolinylsulfonyl)-N’-cyclohexanoyl-piperazine]
- MBC [1]: 16 to 32 µM (≈ 6.2 to 12.4 µg/mL)
- MIC90 ([2]; Mycobacterium tuberculosis, SRMV2.6): > 100 µM
- MIC90 ([2]; strain SRMV2.6): >100 µM
- anticytolytic activity in MRC-5 fibroblasts [3]: completely inactive
- metabolism (in words) [4]: highly metabolized
- MIC90 ([5]; checkerboard, without guanine): 2 µM
- MIC90 ([5]; guanine concentration of 200 μM): > 64 µM
- MIC90 [6]: > 200 µM
- whole-cell activity [7]: not against Corynebacterium glutamicum
- concentrations displaying anticytolytic activity in activated THP-1 macrophages [8]: > 1 µM
- MIC90 [9]: 4 to 8 µM (≈ 1.55 to 3.1 µg/mL)
- MIC90 [10]: > 200 µM
- MIC90 [11]: 16 µM (≈ 6.2 µg/mL)
- IC50 [12]: 13700 nM
- MIC90 ([13]; Mycobacterium tuberculosis, checkerboard, before guaB2 silencing (lowest ATc)): 2.5 µM
- inhibition of nonreplicating Mtb [14]: not significantly inhibiting
- MIC90 [15]: 2 µM (≈ 0.775 µg/mL)
- MIC90 [16]: 4 to 8 µM (≈ 1.55 to 3.1 µg/mL)
- MIC90 [17]: 2 µM (≈ 0.775 µg/mL)
- inhibition at 20 µM ([18]; Mycobacterium tuberculosis, H37RV, 168 h, read-out: percentage inhibition of resazurin reduction): > 80%
- MIC90 ([18]; Mycobacterium tuberculosis, H37RV, read-out: 90% minimum inhibitory concentration (MIC90)): 5 µM (≈ 1.94 µg/mL)
- inhibition of H37Rv growth ([18]; at 20 μM): totally inhibit
- contribution of CYP3A4 to metabolism (in words) [19]: no contribution
- Ki ([20]; Mtb GuaB2): 100 nM
- Ki ([20]; Mtb GuaB2, IMP as the substrate): 120 nM
- mechanism of inhibition ([20]; with respect to IMP and NAD+): uncompetitive
- MIC90 [21]: 8 µM (≈ 3.1 µg/mL)
- permeability (in words) [22]: very high

SMILES: Nc1ncnc2[nH]cnc12 [adenine]
- effect of supplementation on VCC234718 toxicity [5]: neither adenine nor guanosine supplementation was able to rescue

SMILES: CC[C@@H](CO)NCCN[C@@H](CC)CO [ethambutol]
- effect of guaB2 silencing on susceptibility [13]: no effect

SMILES: Nc1nc2nc[nH]c2c(=O)[nH]1 [guanine]
- rescue of Mtb from VCC234718 toxicity ([5]; VCC234718 at 128 μM): unable to rescue
- guanine concentration giving essentially complete rescue from ATc toxicity [23]: ≥ 125 µM

SMILES: Nc1nc2c(ncn2[C@@H]2O[C@H](CO)[C@@H](O)[C@H]2O)c(=O)[nH]1 [guanosine]
- effect of supplementation on VCC234718 toxicity [5]: neither adenine nor guanosine supplementation was able to rescue; also recorded: failed to rescue

SMILES: NNC(=O)c1ccncc1 [isoniazid]
- effect of guaB2 silencing on susceptibility [13]: no effect

SMILES: C[C@H]1COc2c(N3CCN(C)CC3)c(F)cc3c(=O)c(C(=O)O)cn1c23 [levofloxacin]
- effect of guaB2 silencing on susceptibility [13]: no effect

SMILES: CO[C@H]1/C=C/O[C@@]2(C)Oc3c(C)c(O)c4c(O)c(c(/C=N/N5CCN(C)CC5)c(O)c4c3C2=O)NC(=O)/C(C)=C\C=C\[C@H](C)[C@H](O)[C@@H](C)[C@@H](O)[C@@H](C)[C@H](OC(C)=O)[C@@H]1C [rifampicin]
- effect of guaB2 silencing on susceptibility [13]: no effect

SMILES: [H]/N=C(/N)N[C@H]1[C@H](O)[C@@H](O)[C@H](O[C@@H]2O[C@@H](C)[C@](O)(C=O)[C@H]2O[C@@H]2O[C@@H](CO)[C@H](O)[C@@H](O)[C@@H]2NC)[C@@H](N/C(N)=N\[H])[C@@H]1O [streptomycin]
- effect of guaB2 silencing on susceptibility [13]: no effect

SMILES: O=c1[nH]c(=O)c2nc[nH]c2[nH]1 [xanthine]
- effect of supplementation on VCC234718 toxicity [5]: no effect
